Laboratory results published in publication PMC5974751, “NKp44-Derived Peptide Binds Proliferating Cell Nuclear Antigen and Mediates Tumor Cell Death” (Frontiers in Immunology, 2018).
Blank lines part the entries; values can stand above or below the molecule they belong to. Ends that are not written are not given here. * marks the point of attachment. Biotin = O=C1N[C@H]2[C@H](CS[C@H]2CCCCC(=O)*)N1

Legend:
B16 cells = assay: Flow cytometry based cell death assay (PI), B16; design: species or system murine; details: 0–8 µM, 24 h
Experimental: (§1) Peptides were diluted before the incubation with the target cells with free DMEM culture medium to 0–16 µM according to peptide molecular weight. For adding the peptides, 0.5 ml was removed from each well, and 0.5 ml of diluted peptides was added to a final volume of 1 ml, 5% FCS, duplicates. Peptides were incubated with target cells for 24 h, and then the medium was collected, adherent cells were removed with trypsin–EDTA (0.5 ml, 3 min, BI: 03-052-1B), 1 ml of complete medium was added to each well, and the medium was collected (final volume 2.5 ml, on ice). For the cell death assay, samples were then centrifuged (1,300 rpm, 4°C, 5 min), the medium was removed, fresh 1 ml 10% FCS was added, and then 1 µl of 1 mg/ml PI was added to each sample and incubated (15 min, on ice) with the target cells. Before analyzing the samples, samples were centrifuged (1,300 rpm, 4°C, 5 min), the medium was removed, and fresh 0.2 ml FCAS buffer (PBS 1×, 20% FCS, 0.5% NaN3) was added. Samples were then read and analyzed using BD FACSCanto™ II and FlowJo®. APIM peptide and camptothecin (CPT) were used as positive controls ([38], [54]–[56]). Specific cell death was calculated as following: Y = 100*((sample cell death − basal cell death)/(100 − basal cell death)). Basal cell death = % of PI positive cells following incubation in complete culture media.

4T1 cells = assay: Flow cytometry based cell death assay (PI), 4T1; design: species or system murine; details: 4T1, PI flow cytometry, 0–8 µM, 24 h
Experimental: as §1

MDA-MB-231 cells = assay: Flow cytometry based cell death assay (PI), MDA-MB-231; design: species or system human; details: MDA-MB-231, PI flow cytometry, 0–8 µM, 24 h
Experimental: as §1

[1] = test system: 4T1 mammary carcinoma cells; assay: PrestoBlue cell viability, 4T1; type: cell-based, murine; details: 4T1, PrestoBlue, 24 h; peptides 0–8 µM; selenite 25 µM
Experimental: (§2) Target cells (2.5 × 10^4 cells/well of a 48-well plate, Corning) were seeded and incubated in 37°C, 5% CO2 for 24 h in 0.5 ml of fresh complete DMEM (10% FBS) culture medium. According to molecular weight peptides were diluted from 8 to 2 µM with 5% FBS containing DMEM culture medium just before the incubation with the target cells. Medium was removed from each well, and 250 µl of diluted peptides was added and incubated for another 24 h at 37°C, 5% CO2. PrestoBlue (A13261, Invitrogen™) solution was prepared by diluting the dye 10-fold with complete DMEM. Medium was discarded from each well, and 250 µl of PrestoBlue solution was added to each well, shake gently and incubated at 37°C for another 1 h. Emission at 560 nm was measured in Premium Quad4 Monochromators plate reader (Tecan). Normalization was done relative to the appropriate control (DMEM or DMSO) to calculate the percentage of viable cells in each group. Selenite (25 µM) was used as a positive control ([52], [53]).

[2] = test system: A549 lung carcinoma cells; assay: PrestoBlue cell viability, A549; type: cell-based, human; details: 24 h, peptides 0–8 µM, selenite 25 µM
Experimental: as §2

[3] = test system: pep8–PCNA interaction (recombinant PCNA); assay: ELISA-based inhibition of biotin-pep8 binding to PCNA; design: species or system human; details: inhibitor 25 µg/ml 1 h, then biotin-pep8 5 µg/ml 1 h, room temperature, O.D. 650 nm
Experimental: To determine the ability of APIM-based peptide to suppress NKp44-pep8 interaction with PCNA, ELISA plates were coated with recombinant PCNA followed by PBS–skim milk added as described earlier. Plates were then incubated with 25 µg/ml of R11-NLS-pep8 (positive control), R11-NLS-pep8short (negative control), and APIM for 1 h at room temperature followed by addition of biotin-pep8 (5 µg/ml) without washing for 1 h at room temperature. Biotin-pep8 binding to PCNA was detected using streptavidin conjugated HRP (1 h at 1:500 dilution 100 μl/well). Following washing, TMB (100 μl/well DAKO, S1599) was added. O.D. was read at 650 nm (Thermo Electron Corporation Multiskan Spectrum).

B16 melanoma cells = assay: PrestoBlue cell viability, B16; type: cell-based, murine; details: 24 h
Experimental: as §2

[4] = test system: PANC-1 pancreas ductal adenocarcinoma cells; assay: PrestoBlue cell viability, PANC-1; type: cell-based, human; details: PANC-1, PrestoBlue, 24 h
Experimental: as §2

[5] = test system: HepG2 hepatocellular carcinoma cells; assay: PrestoBlue cell viability, HepG2; type: cell-based, human; details: 24 h
Experimental: as §2

[6] = test system: MDA-MB-231 breast adenocarcinoma cells; assay: PrestoBlue cell viability, MDA-MB-231; type: cell-based, human; details: MDA-MB-231, PrestoBlue, 24 h
Experimental: as §2

[7] = test system: recombinant human PCNA (hPCNA); assay: ELISA binding of biotinylated NKp44-derived peptides to plate-bound recombinant PCNA; details: biotinylated peptide, 0–7.24 µM (Figure 1A), streptavidin-HRP, TMB, O.D. 650 nm
Experimental: The pET-28 or pMAL-c2x vectors were used to produce soluble human PCNA (hPCNA) in Rosetta™ 2 (DE3) cells. Plasmids containing the mRNA sequence of PCNA or TL1A, APO-E3, HNF4 were transformed into Rosetta™ 2 cells via heat shock and grown on LB agar plates with kanamycin and chloramphenicol. A fresh colony of transformed bacteria was grown overnight in a 5 ml of LB with kanamycin and chloramphenicol an incubator shaker set to 37°C and at 250 rpm. The next day, bacteria cells were diluted 1:100 into a 500 ml of LB with kanamycin and chloramphenicol (to discard dead cells) and grown to an optical density (O.D.) of 0.6–0.8 (λ = 650 nm). Isopropyl β-D-1-thiogalactopyranoside (0.5 mM) was added for the induction of the PCNA production, and cells were further incubated for 4 h at 26°C (hPCNA). Cells were then centrifuged and the pellet was resuspended with solution A (20 mM Tris–HCl pH 8.0, 0.5 M NaCl, 20 mM imidazole), sonicated six times (20 s with 40 s intervals) and sieved through […] (Sartorius Stedim Biotech) filter before loaded on a His-tag or Amylose resin beads. Purification of His-tagged proteins was done using a Gravity-flow Column with “HisPur™ Ni-NTA Resin” Bead kit (Thermo-Scientific) (binding capacity ≤ 60 mg of a 28 kDa 6xHis-tagged protein from a bacterial source per milliliter of settled resin) according to Kits Protocol. Purification of MBP-tagged proteins was done using the Amylose resin beads (Catalog # E8035S).
To determine the interaction between NKp44-derived peptides and PCNA, ELISA plates were coated overnight at 4°C with 2 µg/ml of the recombinant PCNA or TLA1 ([49]), APO-E3 ([50]), HNF4 ([4]), rhFc, rhNKp44-hFc ([12]), rhNKp46-hFc ([51]), and PBS 1× (negative controls). Blocking buffer (PBS + 2.5% skim milk) was applied for 2 h at room temperature, after that the plates were incubated with 0–8 µM of biotinylated NKp44-derived peptides or PBS 1× (background control) for 2 h at room temperature. NKp44-derived peptides binding to PCNA was detected using horseradish peroxidase (HRP)-conjugated to streptavidin (1 h at 1:500 dilution). Following washing, TMB (DAKO, S1599) was added. O.D. was read at 650 nm (Thermo Electron Corporation Multiskan Spectrum). Between each step, wells were washed three times with PBS containing 0.05% Tween 20 (PBST).

[8] = molecular target: T1, recombinant human PCNA (proliferating cell nuclear antigen) (human, UniProt P12004 1-261); assay: ELISA; plates coated overnight at 4°C with 2 µg/ml recombinant protein; blocked with PBS + 2.5% skim milk; 0-8 µM biotinylated NKp44-derived peptides, 2 h at room temperature; streptavidin-HRP; details: both partners purified
T1 construct: proliferating cell nuclear antigen, human; PCNA coated on ELISA plates; also called hPCNA; recombinant PCNA; source: E. coli Rosetta 2 (DE3), purified (Ni-NTA or amylose resin); not shown: His tag or MBP (from the vectors pET-28 or pMAL-c2x)

[9] = molecular target: T2, MBP-fused recombinant human PCNA (human, UniProt P12004 1-261); assay: SPR; ProteOn XPR36, GLC chip; peptides immobilised by EDC/S-NHS amine coupling; MBP-PCNA 0-250 nM as analyte at 25 µl/min; equilibrium analysis model; details: both partners purified
T2 construct: proliferating cell nuclear antigen, human; vector pMAL-c2x; Analyte of the SPR experiments; also called MBP-PCNA; hPCNA; source: E. coli Rosetta 2 (DE3), purified (amylose resin)
T2 sequence (P12004 whole entry, the tested form may be a part): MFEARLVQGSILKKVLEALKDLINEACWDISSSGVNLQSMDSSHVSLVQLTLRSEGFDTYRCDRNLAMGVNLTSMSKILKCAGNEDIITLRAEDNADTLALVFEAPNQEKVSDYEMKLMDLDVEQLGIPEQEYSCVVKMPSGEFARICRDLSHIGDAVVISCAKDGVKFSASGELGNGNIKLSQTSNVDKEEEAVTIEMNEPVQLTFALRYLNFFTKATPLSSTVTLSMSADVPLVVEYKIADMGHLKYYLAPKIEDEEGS

T1 sequence (P12004 whole entry): as the sequence (P12004 whole entry, the tested form may be a part) above

Molecule: CC[C@@]1(O)C(=O)OCc2c1cc1n(c2=O)Cc2cc3ccccc3nc2-1 [CPT, camptothecin, reference compound]
induction of cell death, in words (B16 cells): lower, but stable levels of cell death | induction of cell death, in words (4T1 cells): lower, but stable levels of cell death | induction of cell death, in words (MDA-MB-231 cells): lower, but stable levels of cell death

Molecule: O=[Se](O)O [Selenite, reference compound]
effect on cell viability, in words [1]: significantly reduced cell viability | effect on cell viability, in words [2]: significantly reduced cell viability

Molecule: MDRWLVK-W-KKKRK-I-RRRRRRRRRRR [APIM, published PCNA-targeting peptide used as positive control, reference compound]
induction of cell death, in words (B16 cells): strong induction of cell death | induction of cell death, in words (4T1 cells): strong induction of cell death | induction of cell death, in words (MDA-MB-231 cells): strong induction of cell death | inhibition of pep8 binding to PCNA [3]: 7%

Molecule: RRRRRRRRRRR-I-KKKRK-W-VTSSKPRTVA [R11-NLS-pep8short, R11-NLS fused to pep8short, negative control]
effect on cell viability, in words [1]: did not affect 4T1 cell viability | effect on cell viability, in words [2]: did not show any effect on tumor cell viability | effect on cell viability, in words (B16 melanoma cells): none to dull effect | effect on cell viability, in words [4]: none to dull effect | effect on cell viability, in words [5]: none to dull effect | effect on cell viability, in words [6]: none to dull effect | induction of cell death, in words (B16 cells): did not induce any cell death | induction of cell death, in words (4T1 cells): did not induce any cell death | induction of cell death, in words (MDA-MB-231 cells): did not induce any cell death | inhibition of pep8 binding to PCNA [3]: 10%

B2: NKp44-derived pep8 (immobilised for SPR) (peptide)
peptide: EASALVCIRLVTSSKPRTVA
notes: NKp44 (NCR2), amino acids 57-76, with the natural SNP variant (rs9471577) valine at 75; also called NKp44-pep8; source: synthetic peptide
Kd [9]: 490 nM

B3: R11-NLS-pep8 (peptide)
peptide: RRRRRRRRRRRIKKKRKWEASALVCIRLVTSSKPRTVA
modifications: not fully specified (residue 38, N-terminus); printed as RRRRRRRRRRR-I-KKKRK-W-EASALVCIRLVTSSKPRTVA
notes: cell-penetrating moiety: R11, I, NLS stretch KKKRK, W; NKp44 (NCR2), amino acids 57-76 (pep8), with valine at 75 (SNP rs9471577); also called CPP-pep8; source: synthetic peptide (GL Biochem, purity > 95%)
Kd [9]: 87 nM

The remaining lines, values ahead:

binding to recombinant hPCNA [7]: does not bind PCNA | binding to recombinant hPCNA ([7]; listed as 10-mer shared core sequence of pep8 and pep10): did not bind PCNA
Molecule: VTSSKPRTVA [pep8short, short form of pep8]

binding to recombinant hPCNA [7]: negative binding
Molecule: YPPTGSLYEKKGWCKEASAL [pep5, NKp44-derived peptide used as negative control]

binding result [8]: binds
B1: biotinylated NKp44-derived peptide #8 (peptide)
peptide: Biotin-EASALVCIRLVTSSKPRTVA
notes: NKp44 (NCR2), amino acids 57-76, with the natural SNP variant (rs9471577) valine at 75; also called pep8; NKp44-pep8; source: synthetic peptide (PEP screen, Sigma-Aldrich; selected peptides from GL Biochem)

binding result [8]: binds
B4: biotinylated NKp44-derived peptide #10 (peptide)
peptide: Biotin-VTSSKPRTVAWTSRFTIWAA
notes: NKp44 (NCR2), amino acids 67-86, with valine at 75 (SNP rs9471577); also called pep10; NKp44-pep10; source: synthetic peptide (PEP screen, Sigma-Aldrich; selected peptides from GL Biochem)
